Measurements taken from PubChem BioAssay (NCI).
“And” between values parts separate entries of the source, which are not always exact repeats. Equal entries are not always repeated.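 Results reflect a 48-hour exposure of cells in 96-well plates to compound at five concentrations. GI50 marks 50% less growth. TGI denotes the concentration required for complete inhibition of growth.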

Experiments:
Assay in all cases: NCI-60 cell line screen, 48 h
A549 NSCLC = tested on: A549 NSCLC
HOP-92 NSCLC = tested on: HOP-92 NSCLC
K-562 leukemia = tested on: K-562 leukemia
LOX IMVI melanoma = tested on: LOX IMVI melanoma
NCI-H460 lung = tested on: NCI-H460 lung
OVCAR-4 ovarian = tested on: OVCAR-4 ovarian
RPMI-8226 leukemia = tested on: RPMI-8226 leukemia
SNB-75 CNS = tested on: SNB-75 CNS
UO-31 renal = tested on: UO-31 renal
COLO 205 colon = tested on: COLO 205 colon

Compound | TGI (A549 NSCLC) | TGI (HOP-92 NSCLC) | TGI (K-562 leukemia) | TGI (LOX IMVI melanoma) | TGI (NCI-H460 lung) | TGI (OVCAR-4 ovarian) | TGI (RPMI-8226 leukemia) | TGI (SNB-75 CNS) | TGI (UO-31 renal) | TGI (COLO 205 colon) | GI50 (A549 NSCLC) | GI50 (COLO 205 colon) | GI50 (HOP-92 NSCLC) | GI50 (K-562 leukemia) | GI50 (LOX IMVI melanoma) | GI50 (NCI-H460 lung) | GI50 (OVCAR-4 ovarian) | GI50 (RPMI-8226 leukemia) | GI50 (SNB-75 CNS) | GI50 (UO-31 renal)
CC(=O)OCC1OC(n2cnc3c(I)nc(I)nc32)C(OC(C)=O)C1OC(C)=O (stereo unspecified) | 32.7 µM | 9.16 µM | 13.5 µM | 29.4 µM | 35.9 µM | 17.4 µM | 31.1 µM | 30.2 µM | 31.5 µM | – | – | – | – | – | – | – | – | – | – | –
Clc1ccc(C2=NN(c3ccccc3)C3c4cc(Br)ccc4OCC23)cc1 (stereo unspecified) | > 100 µM | > 100 µM | > 100 µM | > 100 µM | > 100 µM | – | > 100 µM | > 100 µM | > 100 µM | > 100 µM | – | – | – | – | – | – | – | – | – | –
COC(=O)C12C3C=CC(O3)C1C1C=CC2O1 (stereo unspecified) | > 100 µM | > 100 µM | > 100 µM | – | > 100 µM | – | > 100 µM | – | > 100 µM | > 100 µM | – | – | – | – | – | – | – | – | – | –
COc1ccc(Nc2nc3c(N)cc(C(F)(F)F)cc3nc2-c2ccccc2)cc1 | > 100 µM | > 100 µM | > 100 µM | > 100 µM | > 100 µM | > 100 µM | – | 82.2 µM | > 100 µM | > 100 µM | – | – | – | – | – | – | – | – | – | –
CCN1N=CSC12C(=O)N(c1ccccc1)C(=O)N2c1ccccc1 (stereo unspecified) | > 100 µM | > 100 µM | > 100 µM | > 100 µM | > 100 µM | > 100 µM | – | > 100 µM | > 100 µM | > 100 µM | – | – | – | – | – | – | – | – | – | –
COc1cc(-c2[nH]ncc2CCCC(=O)Nc2ccccc2[N+](=O)[O-])ccc1O | > 100 µM | > 100 µM | > 100 µM | > 100 µM | – | > 100 µM | > 100 µM | > 100 µM | > 100 µM | > 100 µM | – | – | – | – | – | – | – | – | – | –
C=C1C(=O)C23C(O)C1CCC2C12CO[C@]3(O)[C@@H](O)C1C(C)(C)CCC2O (stereo partly specified) | 34.6 µM | 8.99 µM | > 100 µM | 31.4 µM | 29.2 µM | – | > 100 µM | 29.3 µM | 31.1 µM | 7.87 µM | – | – | – | – | – | – | – | – | – | –
C#CCSc1nnnn1-c1ccc(Br)c(C)c1 | > 100 µM | 74.5 µM | > 100 µM | > 100 µM | > 100 µM | > 100 µM | 74 µM | > 100 µM | – | 84.3 µM | 38 µM | 27.2 µM | 14.5 µM | 27.6 µM | 20.9 µM | 31.5 µM | 31.1 µM | 22.5 µM | 25.7 µM | –
COc1ccc(Br)c(CCCCC(=O)O)c1 | > 100 µM | 76.3 µM | > 100 µM | > 100 µM | > 100 µM | > 100 µM | > 100 µM | > 100 µM | – | > 100 µM | – | – | – | – | – | – | – | – | – | –
O=[N+]([O-])c1ccc(N=Nc2c(O)[nH]c3ccc(Br)cc23)c([N+](=O)[O-])c1 | 20.4 µM | 5.1 µM | 15.5 µM | 3.17 µM | – | – | 9.84 µM | 11.5 µM | 7.14 µM | 5.92 µM | – | – | – | – | – | – | – | – | – | –
C=C(CNCCc1ccc(O)cc1)[C@@H]1CC[C@]2(CO)CC[C@]3(C)[C@H](CC[C@@H]4[C@@]5(C)CCC(NCCO)C(C)(C)[C@@H]5CC[C@]43C)[C@@H]12 (stereo partly specified) | 3.12 µM | 2.41 µM | – | 2.88 µM | 3.29 µM | 3.17 µM | 4 µM | 2.52 µM | 2.86 µM | 3.13 µM | 1.7 µM | 1.54 µM | 1.09 µM | – | 1.39 µM | 1.75 µM | 1.4 µM | 1.43 µM | 1.24 µM | 1.47 µM
Cn1cccc1C1CC(=O)N(CCC[Se]C#N)C1=O (stereo unspecified) | 5.17 µM | – | 29.9 µM | 4.28 µM | 5.93 µM | 14 µM | 5.04 µM | – | 3.29 µM | 4.88 µM | 2.07 µM | 2.1 µM | – | 3.2 µM | 1.88 µM | 2.05 µM | 2.35 µM | 2.2 µM | – | 1.57 µM
Cn1cc(-c2nonc2-c2cn(C)c3ccc(Br)cc23)c2ccccc21 | > 100 µM | > 100 µM | > 100 µM | – | > 100 µM | > 100 µM | > 100 µM | 7.71 µM | > 100 µM | – | 5.29 µM | – | 5.16 µM | 1.08 µM | – | 3.31 µM | 5.95 µM | 3.32 µM | 1.77 µM | 3.39 µM
CC1(C)OCC(C2OC(On3nnc4ccc(Cl)cc43)C3OC(C)(C)OC23)O1 (stereo unspecified) | > 100 µM | > 100 µM | > 100 µM | > 100 µM | > 100 µM | > 100 µM | > 100 µM | > 100 µM | – | > 100 µM | – | – | – | – | – | – | – | – | – | –
COc1cccc(C2C3=C(COC3=O)N(CCO)c3cc4c(cc32)CCC4)c1 (stereo unspecified) | – | – | 8.81 µM | > 37.1 µM | 0.319 µM | > 50 µM | 11.6 µM | 0.397 µM | 1.44 µM | 0.198 µM | 0.0982 µM | 0.0584 µM | – | 0.0279 µM | 0.0934 µM | 0.0426 µM | 0.114 µM | 0.127 µM | 0.0236 µM | 0.0192 µM
COC(=O)Oc1nn(C(=O)OC)c(=O)c2ccccc12 (tested in a mixture with another compound) | > 100 µM | – | > 100 µM | > 100 µM | > 100 µM | > 100 µM | > 100 µM | > 100 µM | > 100 µM | > 100 µM | – | – | – | – | – | – | – | – | – | –
COc1cc(C2c3cc4c(cc3[C@@H](OCCN)[C@H]3COC(=O)C23)OCO4)cc(OC)c1O (stereo partly specified) | 1.34 µM | 1.43 µM | – | 0.395 µM | > 100 µM | 5.79 µM | – | 2.43 µM | 13.6 µM | 6.51 µM | – | – | – | – | – | – | – | – | – | –
CN(C)CC1CCCC(CN(C)C)C1=O (stereo unspecified) | 48.1 µM and > 63.6 µM | 2.26 µM | 0.601 µM | 7.09 µM and 30.3 µM | 38.5 µM and 33.8 µM | 3.51 µM and 18.5 µM | 1.53 µM and 2.36 µM | 29.8 µM and 31.1 µM | – | 3.4 µM and 9.47 µM | – | – | – | 0.119 µM and 0.677 µM | 3.4 µM and 8.45 µM | – | 1.89 µM and 7.01 µM | 0.125 µM and 0.458 µM | – | –
COC(=O)CC(CC(=O)C(=O)OC)C(=O)OC (stereo unspecified) | > 100 µM | > 100 µM | > 100 µM | > 100 µM | > 100 µM | – | > 100 µM | > 100 µM | > 100 µM | > 100 µM | – | – | – | – | – | – | – | – | – | –
